Measurements reported in patent US20260028365A1 (BIOGEN MA INC., priority 2022, published 2026).
Like-named read-outs stand apart in the source and are kept apart here.

Assays:
JH2 domain of human Tyk2 = JH2 domain of human Tyk2 (Homo sapiens (Human), UniProt P29597); experiment: JH2 Biochemical Assay (TR-FRET probe displacement); assay type: binding
Tyk2 = Tyk2 (Homo sapiens (Human), UniProt P29597); experiment: pSTAT4 Cell Assay (MSD, NK92 cells); assay type: cell-based
[1] = JH2 domain of human Tyk2, TR-FRET probe displacement
[2] = TR-FRET probe displacement, JH2 domain of human Tyk2
[3] = TR-FRET probe displacement, JH2 domain

Tyk2, sequence (P29597 whole entry, the tested form may be a part): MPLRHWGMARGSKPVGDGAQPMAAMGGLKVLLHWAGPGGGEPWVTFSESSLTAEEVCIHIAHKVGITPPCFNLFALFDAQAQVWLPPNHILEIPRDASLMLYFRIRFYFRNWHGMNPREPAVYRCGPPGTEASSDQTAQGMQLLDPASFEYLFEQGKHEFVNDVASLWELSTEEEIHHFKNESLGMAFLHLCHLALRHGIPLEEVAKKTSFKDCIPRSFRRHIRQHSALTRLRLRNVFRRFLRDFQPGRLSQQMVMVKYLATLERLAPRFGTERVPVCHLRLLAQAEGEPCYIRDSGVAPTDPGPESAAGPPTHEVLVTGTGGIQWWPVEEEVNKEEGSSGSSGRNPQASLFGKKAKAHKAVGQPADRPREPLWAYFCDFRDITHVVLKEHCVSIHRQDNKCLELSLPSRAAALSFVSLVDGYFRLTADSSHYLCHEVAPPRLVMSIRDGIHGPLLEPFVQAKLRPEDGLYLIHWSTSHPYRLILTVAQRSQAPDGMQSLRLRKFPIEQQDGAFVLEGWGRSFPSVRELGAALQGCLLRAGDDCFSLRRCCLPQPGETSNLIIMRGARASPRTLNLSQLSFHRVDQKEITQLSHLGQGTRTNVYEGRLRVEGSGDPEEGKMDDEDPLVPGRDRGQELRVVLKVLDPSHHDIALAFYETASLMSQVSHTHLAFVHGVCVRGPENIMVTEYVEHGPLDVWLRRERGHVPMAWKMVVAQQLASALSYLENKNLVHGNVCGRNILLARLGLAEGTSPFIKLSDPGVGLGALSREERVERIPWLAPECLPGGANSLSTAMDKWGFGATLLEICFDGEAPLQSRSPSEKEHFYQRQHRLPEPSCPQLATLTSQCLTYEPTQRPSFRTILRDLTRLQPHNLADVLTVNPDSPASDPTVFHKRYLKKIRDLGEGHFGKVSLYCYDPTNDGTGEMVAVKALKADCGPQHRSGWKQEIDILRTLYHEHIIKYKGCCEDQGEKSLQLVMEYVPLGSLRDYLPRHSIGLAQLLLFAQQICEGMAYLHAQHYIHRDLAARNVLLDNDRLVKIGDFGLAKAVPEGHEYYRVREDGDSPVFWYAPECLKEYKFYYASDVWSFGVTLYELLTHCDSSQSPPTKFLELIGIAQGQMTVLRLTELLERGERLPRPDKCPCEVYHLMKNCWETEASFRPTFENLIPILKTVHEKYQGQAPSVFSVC
JH2 domain of human Tyk2, sequence (P29597 575-876): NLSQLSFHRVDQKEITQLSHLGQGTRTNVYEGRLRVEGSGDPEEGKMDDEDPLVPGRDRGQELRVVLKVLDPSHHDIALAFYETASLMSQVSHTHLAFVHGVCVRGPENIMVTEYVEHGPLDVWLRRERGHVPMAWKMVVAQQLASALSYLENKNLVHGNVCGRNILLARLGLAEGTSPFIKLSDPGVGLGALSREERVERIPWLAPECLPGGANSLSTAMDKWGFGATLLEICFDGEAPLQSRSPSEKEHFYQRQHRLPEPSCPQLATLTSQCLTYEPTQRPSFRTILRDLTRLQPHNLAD

SMILES | IC50 (JH2 domain of human Tyk2; [1]) [nM] | IC50 (Tyk2; MSD) [nM] | IC50 (JH2 domain of human Tyk2; [2]) [nM] | IC50 (JH2 domain of human Tyk2; [3]) [nM] | IC50 (Tyk2) [nM]
COc1cnc(NC(C)=O)cc1Nc1cc(-c2cnn(C3CCC3)c2)nc(C(C)(F)F)n1 [Example 374, N-(4-((6-(1-cyclobutyl-1H-pyrazol-4-yl)-2-(1,1-difluoroethyl)pyrimidin-4-yl)amino)-5-methoxypyridin-2-yl)acetamide] | 10 to 100 | 100 to 1000 | – | – | –
CC(=O)Nc1cc(Nc2cc(C)nc(C(C)(F)F)n2)c(OCc2ccc(C#N)o2)cn1 [Example 333, N-(5-((5-cyanofuran-2-yl)methoxy)-4-((2-(1,1-difluoroethyl)-6-methylpyrimidin-4-yl)amino)pyridin-2-yl)acetamide] | – | 10 to 100 | ≤ 10 | – | –
CC(=O)Nc1cc(Nc2cc(C)nc(C3(F)CC3)n2)c(-c2ccn(C)n2)cn1 [Example 558, N-(4-((2-(1-fluorocyclopropyl)-6-methylpyrimidin-4-yl)amino)-5-(1-methyl-1H-pyrazol-3-yl)pyridin-2-yl)acetamide] | ≤ 10 | ≤ 10 | – | – | –
CC(=O)Nc1cc(Nc2ccnc(C(C)(F)F)n2)c(-c2cnc(N3CCCC3)cn2)cn1 [Example 843, N-(4-((2-(1,1-difluoroethyl)pyrimidin-4-yl)amino)-5-(5-(pyrrolidin-1-yl)pyrazin-2-yl)pyridin-2-yl)acetamide] | – | – | – | ≤ 10 | 10 to 100
COc1cnc(NC(C)=O)cc1Nc1cc(-c2cncc(C)c2)nc(C(C)(F)F)n1 [Example 389, N-(4-((2-(1,1-difluoroethyl)-6-(5-methylpyridin-3-yl)pyrimidin-4-yl)amino)-5-methoxypyridin-2-yl)acetamide] | ≤ 10 | 10 to 100 | – | – | –
CC(=O)Nc1cc(Nc2cc(C)nc(C(C)(F)F)n2)c(-c2ncc(F)c(C)n2)cn1 [Example 673, N-(4-((2-(1,1-difluoroethyl)-6-methylpyrimidin-4-yl)amino)-5-(5-fluorO4-methylpyrimidin-2-yl)pyridin-2-yl)acetamide] | 10 to 100 | 10 to 100 | – | – | –
CCc1cc(-c2cnc(NC(C)=O)cc2Nc2cc(C)nc(C(C)(F)F)n2)ncn1 [Example 244, N-(4-((2-(1,1-difluoroethyl)-6-methylpyrimidin-4-yl)amino)-5-(6-ethylpyrimidin-4-yl)pyridin-2-yl)acetamide] | – | 10 to 100 | ≤ 10 | – | –
COCCOc1nc(C)cc(Nc2cc(NC(C)=O)ncc2-c2ccn(C)n2)n1 [Example 559, N-(4-((2-(2-methoxyethoxy)-6-methylpyrimidin-4-yl)amino)-5-(1-methyl-1H-pyrazol-3-yl)pyridin-2-yl)acetamide] | ≤ 10 | 10 to 100 | – | – | –
CC(=O)Nc1cc(Nc2cc(C)nc(C(C)(F)F)n2)c(-c2ccc3nccn3n2)cn1 [Example 680, N-(4-((2-(1,1-difluoroethyl)-6-methylpyrimidin-4-yl)amino)-5-(imidazo[1,2-b]pyridazin-6-yl)pyridin-2-yl)acetamide] | ≤ 10 | 10 to 100 | – | – | –
COc1cnnc(-c2cnc(NC(C)=O)cc2Nc2cc(C)nc(C(C)(F)F)n2)c1 [Example 753, N-(4-((2-(1,1-difluoroethyl)-6-methylpyrimidin-4-yl)amino)-5-(5-methoxypyridazin-3-yl)pyridin-2-yl)acetamide] | – | – | – | ≤ 10 | ≥ 1000
CC(=O)Nc1cc(Nc2cccc(C(C)(F)F)n2)c(OCCN2CCCC2)cn1 [Example 64, N-(4-((6-(1,1-difluoroethyl)pyridin-2-yl)amino)-5-(2-(pyrrolidin-1-yl)ethoxy)pyridin-2-yl)acetamide] | – | 10 to 100 | ≤ 10 | – | –
CCOc1cnc(NC(C)=O)cc1Nc1cc(OC2CC(F)(F)C2)nc(C(C)(F)F)n1 [Example 459, N-(4-((6-(3,3-difluorocyclobutoxy)-2-(1,1-difluoroethyl)pyrimidin-4-yl)amino)-5-ethoxypyridin-2-yl)acetamide] | ≤ 10 | 10 to 100 | – | – | –
CC(=O)Nc1cc(Nc2cc(C(C)C)nc(C(C)(F)F)n2)c(OCc2ccccn2)cn1 [Example 365, N-(4-((2-(1,1-difluoroethyl)-6-isopropylpyrimidin-4-yl)amino)-5-(pyridin-2-ylmethoxy)pyridin-2-yl)acetamide] | – | ≤ 10 | ≤ 10 | – | –
